Assay results as given in paper PMC9775191, “A Subset Screen of the Compounds Australia Scaffold Library Identifies 7-Acylaminodibenzoxazepinones as Potent and Selective Hits for Anti-Giardia Drug Discovery” (Biomedicines, 2022).

Test system: G. duodenalis BRIS/91/HEPU/1279
Assay: Primary Giardia screen at 10 µM (live-cell imaging, automated counting)
Format: cell-based, Giardia duodenalis
Details: for % Inhibition n=1 48h / % Inhibition n=1 24h: first singlicate assay; for % Inhibition n=2 24h / % Inhibition n=2 48h: re-assessment
Description: Each compound was assessed in singlicate, at a final concentration of 10 μM (0.4 μL of a 5 mM stock; diluted to a final volume of 200 μL in culture medium; 0.2% DMSO). […] Plates were incubated in sealed chambers filled with 3% O2, 5% CO2 in N2 and growth was assessed at 24 and 48 h using live cell imaging and automated counting as previously described. Growth inhibition was calculated by subtracting media only background counts and determining percentage growth relative to vehicle (0.2% DMSO) controls. The reliability of these assays was assessed by calculating Z’ factors for each plate as previously described.

| Compound | % Inhibition n=1 48h | further results |
| --- | --- | --- |
| CCOC(=O)c1ccccc1NC(=O)N1Cc2c(sc3c2CCN(C)C3)-n2cccc2C1CC (centres unmarked) [SN00791557] | 10.1% | – |
| COCCn1cc2c3c(cccc31)CN(C(=O)Nc1ccccc1F)CC2 [SN00798581] | 22.0% | – |
| Cc1ccc(CN2CCN(C(=O)C3CCC3)c3cccnc32)cc1 [SN00790417] | 4.2% | – |
| O=C(NCCSc1ccc(Cl)cc1)c1cc(S(=O)(=O)N2CCOCC2)c[nH]1 [SN00777799] | 7.9% | – |
| CCCNC(=O)N1Cc2c(sc3c2CCCC3)-n2cccc2C1CC (centres unmarked) [SN00791532] | 15.0% | – |
| CSc1ccc(CNC(=O)c2cn3cc(C)ccc3n2)cc1 [SN00799926] | 26.2% | – |
| CCOc1cc(F)ccc1NC(=O)N1CCCC(N2CCCC2=O)C1 (centres unmarked) [SN00782090] | 7.0% | – |
| Cc1nc(-c2ccc(C(=O)N3CCCC3C(=O)Nc3ccc(C)c(Cl)c3)cc2)no1 (centres unmarked) [SN00793320] | 16.2% | – |
| COc1ccc(S(=O)(=O)N2CCc3nc(-c4ccccc4)ncc3C2)cc1 [SN00799076] | 6.9% | – |
| CCN(CC)C(=O)C1CSCN1C(=O)c1cc(C)nc2c1nc1n2CCCCC1 (centres unmarked) [SN00779876] | 62.1% | Average % Inhibition 24h: 1.0%; % Inhibition n=1 24h: 1.9%; % Inhibition n=2 24h: 0.0%; Average % Inhibition 48h: 31.1%; % Inhibition n=2 48h: 0.0% |
| O=C(c1ccccc1)N1CCN(c2cc(-c3ccc(Cl)cc3)n[nH]2)CC1 [SN00800335] | 14.4% | – |
| Cc1ccccc1C(=O)Nc1cnc(N2CCNCC2)c(C(=O)N(C)Cc2ccccc2)c1 [SN00795318] | 15.2% | – |
| Cc1ccc(S(=O)(=O)Nc2cc3c(cc2NCc2ccccc2)n(C)c(=O)n3C)cc1 [SN00784759] | 14.3% | – |
| Cc1ccnc(N2CCCC(C(=O)NC3CCCC3)C2)n1 (centres unmarked) [SN00795015] | 10.9% | – |
| Cn1ccc2c(cc(C(=O)N3CCC(N4CCCCC4)CC3)n2C)c1=O [SN00797819] | 18.7% | – |
| COc1ccc(-n2ccn3c(CCC(=O)Nc4cc(C)cc(C)c4)nnc3c2=O)cc1 [SN00781639] | 16.2% | – |
| Cc1nccc2[nH]c(=O)c(C(=O)NCCCN(C)C3CCCCC3)cc12 [SN00794671] | 0.0% | – |
| CCc1nn(CC)c(=O)c2cc(S(=O)(=O)N3CCOCC3)cn12 [SN00800228] | 11.8% | – |
| Cc1cc2n(n1)CCCN2CC(=O)N1CCN(c2cccc(Cl)c2)CC1 [SN00791744] | 5.3% | – |

| Compound | % Inhibition n=1 48h | further results |
| --- | --- | --- |
| O=C(Nc1ccccc1)c1cc(-c2cccs2)n(C2CCS(=O)(=O)C2)n1 (centres unmarked) [SN00786904] | 1.7% | – |
| COc1ccc(CN2CCN(C(=O)c3c(C)oc4c3C3=NCCN3C=N4)CC2)c(OC)c1OC [SN00791620] | 7.4% | – |
| CCn1nnc2cc(C(=O)N(C)CC(=O)NCc3cccc(C)c3)ccc21 [SN00789328] | 14.4% | – |
| Cc1ccc(S(=O)(=O)Nc2ccc3c(c2)N(C(=O)c2ccco2)CCC3)cc1C [SN00792238] | 12.2% | – |
| COc1cc(NC(=O)N2CCN(c3cc(N(C)C)nc(C)n3)CC2)cc(OC)c1 [SN00786504] | 55.1% | Average % Inhibition 24h: 4.9%; % Inhibition n=1 24h: 9.8%; % Inhibition n=2 24h: 0.0%; Average % Inhibition 48h: 27.5%; % Inhibition n=2 48h: 0.0% |
| CCC(C)NC(=O)C1CCN(c2cnc(N3CCSCC3)nc2)CC1 (centres unmarked) [SN00798903] | 12.6% | – |
| Cc1ccccc1CS(=O)(=O)Cc1ccc(-c2nc(-c3ccc(Br)cc3)no2)o1 [SN00790667] | 0.0% | – |
| COc1cccc(CNC(=O)c2nsc(C(=O)NCc3ccccc3F)c2N)c1 [SN00797759] | 13.9% | – |
| O=C(CSc1ccccc1)NCC1(N2CCCCC2)CCOCC1 [SN00807846] | 1.8% | – |
| Cc1ccc(NC(=O)c2cc(-c3ccc4c(c3)OCCO4)on2)cc1C [SN00786283] | 2.9% | – |
| Cc1ccc2oc(-c3noc(C4CC(=O)N(c5ccccc5)C4)n3)c(C)c2c1 (centres unmarked) [SN00796597] | 2.9% | – |
| CC(NC(=O)Cc1csc(Cc2ccccn2)n1)c1ccc(F)cc1 (centres unmarked) [SN00779507] | 0.0% | – |
| COc1ccccc1-c1nc(C2CCCN(C(=O)c3ccc(C(C)C)cc3)C2)no1 (centres unmarked) [SN00798647] | 0.0% | – |
| CC(NC(=O)Cn1nc(-c2ccccc2)c2ccccc2c1=O)c1ccccc1 (centres unmarked) [SN00783639] | 3.0% | – |
| Cc1ccc(S(=O)(=O)N2CCC[C@H]2C(=O)N2CCN(CC(=O)Nc3cccc(C)c3C)CC2)cc1 [SN00772546] | 7.6% | – |
| O=C(C1CCCN1S(=O)(=O)c1ccc(Br)cc1)N1CCCCC1 (centres unmarked) [SN00774966] | 3.8% | – |
| Cc1cccc(Cn2c(CNS(=O)(=O)c3ccccc3)nc3cccnc32)c1 [SN00793267] | 9.9% | – |
| CCCn1cc(S(=O)(=O)c2ccc(Cl)cc2)c(=O)c2cc(F)c(N3CCOCC3)cc21 [SN00787800] | 0.0% | – |
